Laboratory results: PMC3694096, “Development of Novel In Vivo Chemical Probes to Address CNS Protein Kinase Involvement in Synaptic Dysfunction” (PLoS ONE, 2013)

Assays:
EGFR(T790M) = target: T1, EGFR(T790M) (Homo sapiens, UniProt P00533, T790M); test: Kinome profiler screen; format: biochemical; conditions: at 20,000 nM inhibitor; kinase activity remaining
T1 construct: purchased Millipore KinaseProfiler

KDR = target: T2, KDR (Homo sapiens, UniProt P35968); test: Kinome profiler screen; format: biochemical; conditions: at 20,000 nM inhibitor; kinase activity remaining
T2 construct: purchased Millipore KinaseProfiler
T2 sequence (P35968 20-1356): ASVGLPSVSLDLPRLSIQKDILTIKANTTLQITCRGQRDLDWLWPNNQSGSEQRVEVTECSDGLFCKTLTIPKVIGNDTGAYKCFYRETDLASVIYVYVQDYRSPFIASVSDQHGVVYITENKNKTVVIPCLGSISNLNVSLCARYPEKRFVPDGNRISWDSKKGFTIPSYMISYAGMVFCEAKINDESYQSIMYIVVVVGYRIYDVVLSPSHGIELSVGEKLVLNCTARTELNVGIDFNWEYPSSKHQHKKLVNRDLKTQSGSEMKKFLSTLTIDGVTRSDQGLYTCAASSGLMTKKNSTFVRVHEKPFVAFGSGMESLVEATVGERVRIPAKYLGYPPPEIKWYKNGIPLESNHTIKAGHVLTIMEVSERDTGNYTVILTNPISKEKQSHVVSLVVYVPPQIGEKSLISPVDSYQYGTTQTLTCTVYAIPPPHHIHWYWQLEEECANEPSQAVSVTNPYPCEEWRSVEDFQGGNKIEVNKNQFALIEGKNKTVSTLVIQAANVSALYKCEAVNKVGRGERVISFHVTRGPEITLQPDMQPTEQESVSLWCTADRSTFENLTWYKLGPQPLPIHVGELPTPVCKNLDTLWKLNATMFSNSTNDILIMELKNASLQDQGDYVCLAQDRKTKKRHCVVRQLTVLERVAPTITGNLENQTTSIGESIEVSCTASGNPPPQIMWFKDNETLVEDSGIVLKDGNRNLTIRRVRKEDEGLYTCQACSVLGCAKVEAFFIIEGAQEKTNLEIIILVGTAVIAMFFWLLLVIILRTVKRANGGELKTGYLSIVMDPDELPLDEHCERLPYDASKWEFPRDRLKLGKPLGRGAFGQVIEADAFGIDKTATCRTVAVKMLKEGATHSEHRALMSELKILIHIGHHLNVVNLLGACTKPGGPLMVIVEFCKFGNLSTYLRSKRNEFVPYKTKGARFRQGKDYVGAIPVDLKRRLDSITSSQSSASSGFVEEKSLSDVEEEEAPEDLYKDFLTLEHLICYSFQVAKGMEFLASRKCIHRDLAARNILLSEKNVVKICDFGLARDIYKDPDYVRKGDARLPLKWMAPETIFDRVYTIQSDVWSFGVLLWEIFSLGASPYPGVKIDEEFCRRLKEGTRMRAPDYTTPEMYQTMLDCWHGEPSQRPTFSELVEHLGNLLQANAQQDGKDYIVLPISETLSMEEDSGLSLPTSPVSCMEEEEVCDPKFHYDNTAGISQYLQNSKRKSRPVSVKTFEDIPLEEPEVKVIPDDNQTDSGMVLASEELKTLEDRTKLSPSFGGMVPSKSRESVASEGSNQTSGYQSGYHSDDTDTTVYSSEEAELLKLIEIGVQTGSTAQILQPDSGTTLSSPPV

ROCK-II(r) = target: T3, ROCK-II(r) (Rattus norvegicus, UniProt Q62868); test: Kinome profiler screen; format: biochemical; conditions: at 20,000 nM inhibitor; kinase activity remaining
T3 construct: purchased Millipore KinaseProfiler
T3 sequence (Q62868 2-543 limits assumed): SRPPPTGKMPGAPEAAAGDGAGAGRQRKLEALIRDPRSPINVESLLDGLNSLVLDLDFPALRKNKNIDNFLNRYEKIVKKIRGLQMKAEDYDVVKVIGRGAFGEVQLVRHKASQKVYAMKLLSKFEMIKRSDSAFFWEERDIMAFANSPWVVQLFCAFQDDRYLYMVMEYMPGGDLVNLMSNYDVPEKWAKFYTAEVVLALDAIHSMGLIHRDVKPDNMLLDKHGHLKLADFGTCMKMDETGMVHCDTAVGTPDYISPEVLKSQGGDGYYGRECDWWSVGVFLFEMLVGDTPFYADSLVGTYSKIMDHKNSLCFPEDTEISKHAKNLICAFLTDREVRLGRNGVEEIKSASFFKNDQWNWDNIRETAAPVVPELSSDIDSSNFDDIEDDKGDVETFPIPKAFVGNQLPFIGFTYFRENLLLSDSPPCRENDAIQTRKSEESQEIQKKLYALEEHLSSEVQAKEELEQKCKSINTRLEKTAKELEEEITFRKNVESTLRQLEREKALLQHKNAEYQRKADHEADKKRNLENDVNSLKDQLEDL

PAR-1Bα = target: T4, PAR-1Bα (Homo sapiens, UniProt Q7KZI7); test: Kinome profiler screen; format: biochemical; conditions: at 20,000 nM inhibitor; kinase activity remaining
T4 construct: purchased Millipore KinaseProfiler

Itk = target: T5, Itk (Homo sapiens, UniProt Q08881); test: Kinome profiler screen; format: biochemical; conditions: at 20,000 nM inhibitor; kinase activity remaining
T5 construct: purchased Millipore KinaseProfiler

CaMKIIγ = target: T6, CaMKIIγ (Homo sapiens, UniProt Q13555); test: Kinome profiler screen; format: biochemical; conditions: at 20,000 nM inhibitor; kinase activity remaining
T6 construct: purchased Millipore KinaseProfiler

MSSK1 = target: T7, MSSK1 (Homo sapiens, UniProt Q9UPE1); test: Kinome profiler screen; format: biochemical; conditions: at 20,000 nM inhibitor; kinase activity remaining
T7 construct: purchased Millipore KinaseProfiler
T7 sequence (Q9UPE1 whole entry): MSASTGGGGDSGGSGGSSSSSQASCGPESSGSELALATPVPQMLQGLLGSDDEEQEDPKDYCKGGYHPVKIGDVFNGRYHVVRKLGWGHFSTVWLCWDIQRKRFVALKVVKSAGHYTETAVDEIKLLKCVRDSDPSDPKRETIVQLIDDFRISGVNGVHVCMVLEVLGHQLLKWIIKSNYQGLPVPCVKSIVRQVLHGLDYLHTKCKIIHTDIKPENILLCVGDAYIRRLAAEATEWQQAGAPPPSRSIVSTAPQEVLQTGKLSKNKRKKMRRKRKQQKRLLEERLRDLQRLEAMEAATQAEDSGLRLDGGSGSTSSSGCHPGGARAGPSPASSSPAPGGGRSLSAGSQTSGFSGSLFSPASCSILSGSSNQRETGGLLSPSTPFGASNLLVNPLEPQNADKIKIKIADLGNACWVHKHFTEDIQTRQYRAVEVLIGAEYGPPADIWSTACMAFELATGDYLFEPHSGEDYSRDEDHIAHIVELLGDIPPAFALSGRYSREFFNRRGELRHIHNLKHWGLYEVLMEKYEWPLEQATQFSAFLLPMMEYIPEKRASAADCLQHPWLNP

ErbB4 = target: T8, ErbB4 (Homo sapiens, UniProt Q15303); test: Kinome profiler screen; format: biochemical; conditions: at 20,000 nM inhibitor; kinase activity remaining
T8 construct: purchased Millipore KinaseProfiler

GCK = target: T9, GCK (Homo sapiens, UniProt Q12851); test: Kinome profiler screen; format: biochemical; conditions: at 20,000 nM inhibitor; kinase activity remaining
T9 construct: purchased Millipore KinaseProfiler

Abl = target: T10, Abl (Homo sapiens, UniProt P00519); test: Kinome profiler screen; format: biochemical; conditions: at 20,000 nM inhibitor; kinase activity remaining
T10 construct: purchased Millipore KinaseProfiler

Mnk2 = target: T11, Mnk2 (Homo sapiens, UniProt Q9HBH9); test: Kinome profiler screen; format: biochemical; conditions: at 20,000 nM inhibitor; kinase activity remaining
T11 construct: purchased Millipore KinaseProfiler

GSK3α = target: T12, GSK3α (Homo sapiens, UniProt P49840); test: Kinome profiler screen; format: biochemical; conditions: at 20,000 nM inhibitor; kinase activity remaining
T12 construct: purchased Millipore KinaseProfiler

RIPK2 = target: T13, RIPK2 (Homo sapiens, UniProt O43353); test: Kinome profiler screen; format: biochemical; conditions: at 20,000 nM inhibitor; kinase activity remaining
T13 construct: purchased Millipore KinaseProfiler
T13 sequence (O43353 whole entry): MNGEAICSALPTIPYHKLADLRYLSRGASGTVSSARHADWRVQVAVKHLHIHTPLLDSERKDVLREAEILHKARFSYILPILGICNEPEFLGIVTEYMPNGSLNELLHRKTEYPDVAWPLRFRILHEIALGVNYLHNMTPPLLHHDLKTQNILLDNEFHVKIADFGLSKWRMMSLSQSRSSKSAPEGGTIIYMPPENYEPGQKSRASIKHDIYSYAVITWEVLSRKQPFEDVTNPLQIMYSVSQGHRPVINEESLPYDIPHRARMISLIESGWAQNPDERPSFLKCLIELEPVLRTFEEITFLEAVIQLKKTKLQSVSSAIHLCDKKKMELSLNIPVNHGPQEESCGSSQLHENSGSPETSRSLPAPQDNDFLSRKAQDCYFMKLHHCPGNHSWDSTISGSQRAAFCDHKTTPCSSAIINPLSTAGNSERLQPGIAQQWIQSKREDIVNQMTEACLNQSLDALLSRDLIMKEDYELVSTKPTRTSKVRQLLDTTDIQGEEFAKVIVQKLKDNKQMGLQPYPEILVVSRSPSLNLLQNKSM

PKBα = target: T14, PKBα (Homo sapiens, UniProt P31749); test: Kinome profiler screen; format: biochemical; conditions: at 20,000 nM inhibitor; kinase activity remaining
T14 construct: purchased Millipore KinaseProfiler

Pim-3 = target: T15, Pim-3 (Homo sapiens, UniProt Q86V86); test: Kinome profiler screen; format: biochemical; conditions: at 20,000 nM inhibitor; kinase activity remaining
T15 construct: purchased Millipore KinaseProfiler

mTOR = target: T16, mTOR (Homo sapiens, UniProt P42345); test: Kinome profiler screen; format: biochemical; conditions: at 20,000 nM inhibitor; kinase activity remaining
T16 construct: purchased Millipore KinaseProfiler

PKCη = target: T17, PKCη (Homo sapiens, UniProt P24723); test: Kinome profiler screen; format: biochemical; conditions: at 20,000 nM inhibitor; kinase activity remaining
T17 construct: purchased Millipore KinaseProfiler

WNK3 = target: T18, WNK3 (Homo sapiens, UniProt Q9BYP7); test: Kinome profiler screen; format: biochemical; conditions: at 20,000 nM inhibitor; kinase activity remaining
T18 construct: purchased Millipore KinaseProfiler

CDK5/p35 = target: T19, CDK5/p35 (Homo sapiens, UniProt Q00535); test: Kinome profiler screen; format: biochemical; conditions: at 20,000 nM inhibitor; kinase activity remaining
T19 construct: purchased Millipore KinaseProfiler
T19 sequence (Q00535 whole entry): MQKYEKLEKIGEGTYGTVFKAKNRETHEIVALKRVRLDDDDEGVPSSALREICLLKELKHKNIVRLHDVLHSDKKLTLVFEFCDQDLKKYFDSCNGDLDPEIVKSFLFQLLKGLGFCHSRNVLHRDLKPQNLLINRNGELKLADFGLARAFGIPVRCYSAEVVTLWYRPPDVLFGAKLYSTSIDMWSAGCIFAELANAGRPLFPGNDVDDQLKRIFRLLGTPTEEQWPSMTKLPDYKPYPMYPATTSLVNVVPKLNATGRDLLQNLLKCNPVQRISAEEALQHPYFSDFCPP
T19 sequence (Q15078 whole entry partner): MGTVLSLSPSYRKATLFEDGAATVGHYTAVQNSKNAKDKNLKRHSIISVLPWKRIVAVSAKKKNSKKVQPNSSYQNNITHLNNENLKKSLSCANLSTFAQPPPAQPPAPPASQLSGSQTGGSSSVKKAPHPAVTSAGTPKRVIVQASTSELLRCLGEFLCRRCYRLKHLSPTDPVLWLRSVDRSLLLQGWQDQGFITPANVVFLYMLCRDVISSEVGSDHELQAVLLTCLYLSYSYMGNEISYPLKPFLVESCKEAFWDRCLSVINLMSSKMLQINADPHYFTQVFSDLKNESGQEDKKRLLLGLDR

Pim-2 = target: T20, Pim-2 (Homo sapiens, UniProt Q9P1W9); test: Kinome profiler screen; format: biochemical; conditions: at 20,000 nM inhibitor; kinase activity remaining
T20 construct: purchased Millipore KinaseProfiler
T20 sequence (Q9P1W9 whole entry): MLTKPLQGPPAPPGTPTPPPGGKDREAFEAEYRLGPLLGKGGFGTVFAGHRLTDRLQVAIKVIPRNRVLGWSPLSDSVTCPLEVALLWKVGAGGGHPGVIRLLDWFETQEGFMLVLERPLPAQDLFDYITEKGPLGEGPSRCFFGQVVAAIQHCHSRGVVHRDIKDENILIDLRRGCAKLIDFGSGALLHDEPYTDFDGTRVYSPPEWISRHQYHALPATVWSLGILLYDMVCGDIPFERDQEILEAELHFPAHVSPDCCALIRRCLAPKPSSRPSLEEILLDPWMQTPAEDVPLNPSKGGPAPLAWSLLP

IKKβ = target: T21, IKKβ (Homo sapiens, UniProt O14920); test: Kinome profiler screen; format: biochemical; conditions: at 20,000 nM inhibitor; kinase activity remaining
T21 construct: purchased Millipore KinaseProfiler

Arg = target: T22, Arg (Homo sapiens, UniProt P42684); test: Kinome profiler screen; format: biochemical; conditions: at 20,000 nM inhibitor; kinase activity remaining
T22 construct: purchased Millipore KinaseProfiler

[1] = target: T23, PI3 Kinase (p110α (E545K)/p85α)(m) (Mus musculus, UniProt P42337, E545K); test: Kinome profiler screen; format: biochemical; conditions: at 20,000 nM inhibitor; kinase activity remaining
T23 construct: purchased Millipore KinaseProfiler

PTK5 = target: T24, PTK5 (Homo sapiens, UniProt P42685); test: Kinome profiler screen; format: biochemical; conditions: at 20,000 nM inhibitor; kinase activity remaining
T24 construct: purchased Millipore KinaseProfiler

MAPKAP-K3 = target: T25, MAPKAP-K3 (Homo sapiens, UniProt Q16644); test: Kinome profiler screen; format: biochemical; conditions: at 20,000 nM inhibitor; kinase activity remaining
T25 construct: purchased Millipore KinaseProfiler

CK1γ1 = target: T26, CK1γ1 (Homo sapiens, UniProt Q9HCP0); test: Kinome profiler screen; format: biochemical; conditions: at 20,000 nM inhibitor; kinase activity remaining
T26 construct: purchased Millipore KinaseProfiler

EGFR(T790M,L858R) = target: T27, EGFR(T790M,L858R) (Homo sapiens, UniProt P00533, L858R/T790M); test: Kinome profiler screen; format: biochemical; conditions: at 20,000 nM inhibitor; kinase activity remaining
T27 construct: purchased Millipore KinaseProfiler

Abl (M351T) = target: T28, Abl (M351T) (Homo sapiens, UniProt P00519, M351T); test: Kinome profiler screen; format: biochemical; conditions: at 20,000 nM inhibitor; kinase activity remaining
T28 construct: purchased Millipore KinaseProfiler

PI3 Kinase (p110β/p85α) = target: T29, PI3 Kinase (p110β/p85α) (Homo sapiens, UniProt P42338); test: Kinome profiler screen; format: biochemical; conditions: at 20,000 nM inhibitor; kinase activity remaining
T29 construct: purchased Millipore KinaseProfiler

JAK2 = target: T30, JAK2 (Homo sapiens, UniProt O60674); test: Kinome profiler screen; format: biochemical; conditions: at 20,000 nM inhibitor; kinase activity remaining
T30 construct: purchased Millipore KinaseProfiler
T30 sequence (O60674 whole entry): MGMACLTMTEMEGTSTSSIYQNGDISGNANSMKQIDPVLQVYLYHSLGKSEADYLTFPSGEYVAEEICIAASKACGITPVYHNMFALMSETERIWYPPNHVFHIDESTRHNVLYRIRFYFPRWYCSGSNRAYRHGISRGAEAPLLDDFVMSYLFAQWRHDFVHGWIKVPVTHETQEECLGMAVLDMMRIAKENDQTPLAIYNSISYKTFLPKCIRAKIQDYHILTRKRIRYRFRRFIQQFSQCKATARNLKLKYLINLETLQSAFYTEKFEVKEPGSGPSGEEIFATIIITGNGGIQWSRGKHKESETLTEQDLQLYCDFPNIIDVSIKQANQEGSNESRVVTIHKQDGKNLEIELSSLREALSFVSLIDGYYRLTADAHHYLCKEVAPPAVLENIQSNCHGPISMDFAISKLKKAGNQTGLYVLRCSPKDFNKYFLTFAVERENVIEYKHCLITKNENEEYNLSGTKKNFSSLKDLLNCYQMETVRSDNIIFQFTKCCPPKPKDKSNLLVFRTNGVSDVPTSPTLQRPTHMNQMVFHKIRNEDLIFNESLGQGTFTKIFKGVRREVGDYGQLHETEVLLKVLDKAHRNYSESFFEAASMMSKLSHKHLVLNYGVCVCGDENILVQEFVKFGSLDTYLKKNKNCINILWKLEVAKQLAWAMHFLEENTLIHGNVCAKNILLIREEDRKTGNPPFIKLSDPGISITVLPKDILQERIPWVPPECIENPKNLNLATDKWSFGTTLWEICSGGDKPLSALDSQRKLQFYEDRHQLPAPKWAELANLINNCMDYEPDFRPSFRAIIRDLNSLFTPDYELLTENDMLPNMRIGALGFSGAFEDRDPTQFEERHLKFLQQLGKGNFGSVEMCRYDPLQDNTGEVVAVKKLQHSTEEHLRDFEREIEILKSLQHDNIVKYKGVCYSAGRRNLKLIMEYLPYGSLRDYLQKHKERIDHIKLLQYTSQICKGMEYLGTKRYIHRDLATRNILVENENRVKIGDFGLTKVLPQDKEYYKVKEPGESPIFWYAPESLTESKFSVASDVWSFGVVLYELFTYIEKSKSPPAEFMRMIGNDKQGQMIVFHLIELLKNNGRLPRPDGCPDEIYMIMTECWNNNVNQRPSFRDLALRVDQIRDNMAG

CDK1/cyclinB = target: T31, CDK1/cyclinB (Homo sapiens, UniProt P06493); test: Kinome profiler screen; format: biochemical; conditions: at 20,000 nM inhibitor; kinase activity remaining
T31 construct: purchased Millipore KinaseProfiler

TAO1 = target: T32, TAO1 (Homo sapiens, UniProt Q7L7X3); test: Kinome profiler screen; format: biochemical; conditions: at 20,000 nM inhibitor; kinase activity remaining
T32 construct: purchased Millipore KinaseProfiler

PDGFRβ = target: T33, PDGFRβ (Homo sapiens, UniProt P09619); test: Kinome profiler screen; format: biochemical; conditions: at 20,000 nM inhibitor; kinase activity remaining
T33 construct: purchased Millipore KinaseProfiler

EGFR(L861Q) = target: T34, EGFR(L861Q) (Homo sapiens, UniProt P00533, L861Q); test: Kinome profiler screen; format: biochemical; conditions: at 20,000 nM inhibitor; kinase activity remaining
T34 construct: purchased Millipore KinaseProfiler

PKG1β = target: T35, PKG1β (Homo sapiens, UniProt Q13976); test: Kinome profiler screen; format: biochemical; conditions: at 20,000 nM inhibitor; kinase activity remaining
T35 construct: purchased Millipore KinaseProfiler

CK2 = target: T36, CK2 (Homo sapiens, UniProt P68400); test: Kinome profiler screen; format: biochemical; conditions: at 20,000 nM inhibitor; kinase activity remaining
T36 construct: purchased Millipore KinaseProfiler

[2] = Dose escalation adverse event screen (SHIRPA based); format: in vivo; conditions: highest dose at which no adverse events are observed in dose escalation studies, mice
From the text: Novel compounds were screened in vivo using a standard dose escalation screen in mice coupled with clinical observation and testing based on the SHIRPA mouse phenotype assay paradigm. To obtain insight into the potential for off-target activity with the largest known family of small molecule drug targets, G-protein coupled receptors (GPCRs), a cell-based functional screen of the final title compounds was done. The Millipore® GPCR Profiler screen employs the ChemiScreen GPCR stable cell line technology used for real-time calcium flux FLIPR assays on a panel of 158 GPCRs to detect both antagonists and agonists. The NCBI Entrez identifier for each GPCR is provided at the vendor site (www.millipore.com). Follow-up validation of any initial hits as being true positives or negatives was done as described above for protein kinases by testing the concentration dependence of any cellular effects. No validated hits were detected.

Syk = target: T37, Syk (Homo sapiens, UniProt P43405); test: Kinome profiler screen; format: biochemical; conditions: at 20,000 nM inhibitor; kinase activity remaining
T37 construct: purchased Millipore KinaseProfiler

Lck activated = target: T38, Lck activated (Homo sapiens, UniProt P06239); test: Kinome profiler screen; format: biochemical; conditions: at 20,000 nM inhibitor; kinase activity remaining
T38 construct: purchased Millipore KinaseProfiler

SMILES	activity at 20 µM (EGFR(T790M)) [%]	activity at 20 µM (KDR) [%]	activity at 20 µM (ROCK-II(r)) [%]	activity at 20 µM (PAR-1Bα) [%]	activity at 20 µM (Itk) [%]	activity at 20 µM (CaMKIIγ) [%]	activity at 20 µM (MSSK1) [%]	activity at 20 µM (ErbB4) [%]	activity at 20 µM (GCK) [%]	activity at 20 µM (Abl) [%]	activity at 20 µM (Mnk2) [%]	activity at 20 µM (GSK3α) [%]	activity at 20 µM (RIPK2) [%]	activity at 20 µM (PKBα) [%]	activity at 20 µM (Pim-3) [%]	activity at 20 µM (mTOR) [%]	activity at 20 µM (PKCη) [%]	activity at 20 µM (WNK3) [%]	activity at 20 µM (CDK5/p35) [%]	activity at 20 µM (Pim-2) [%]	further results
CN(C)c1cc(-c2ccncc2)c(-c2cccc3ccccc23)nn1 [MW181, N,N-dimethyl-6-(naphthalen-1-yl)-5-(pyridin-4-yl)pyridazin-3-amine]	105	97	92	106	91	100	100	78	101	125	99	95	84	90	106	109	104	89	95	103	activity at 20 µM (IKKβ): 88%; activity at 20 µM (Arg): 84%; activity at 20 µM [1]: 99%; activity at 20 µM (PTK5): 90%; activity at 20 µM (MAPKAP-K3): 99%; activity at 20 µM (CK1γ1): 101%; activity at 20 µM (EGFR(T790M,L858R)): 80%; activity at 20 µM (Abl (M351T)): 101%; activity at 20 µM (PI3 Kinase (p110β/p85α)): 98%; activity at 20 µM (JAK2): 111%; activity at 20 µM (CDK1/cyclinB): 113%; activity at 20 µM (TAO1): 98%; activity at 20 µM (PDGFRβ): 99%; activity at 20 µM (EGFR(L861Q)): 56%; activity at 20 µM (PKG1β): 97%; activity at 20 µM (CK2): 104%; Dose Escalating Adverse Event Screen / Adverse Pharm Dose [2]: ≥ 200 mg/kg; Dose Escalating Adverse Event Screen / Adverse Pharm Dose ([2]; listed as MW01-10-181SRM): > 200 mg/kg; activity at 20 µM (Syk): 105%; activity at 20 µM (Lck activated): 84%
CN(C)c1cc(-c2ccncc2)c(-c2ccc3ccccc3c2)nn1 [MW108, N, N-dimethyl-6-(naphthalen-2-yl)-5-(pyridin-4-yl)pyridazin-3-amine]	68	87	97	97	90	99	86	52	101	99	99	90	57	99	105	92	88	91	99	93	activity at 20 µM (IKKβ): 98%; activity at 20 µM (Arg): 95%; activity at 20 µM [1]: 99%; activity at 20 µM (PTK5): 80%; activity at 20 µM (MAPKAP-K3): 102%; activity at 20 µM (CK1γ1): 101%; activity at 20 µM (EGFR(T790M,L858R)): 40%; activity at 20 µM (Abl (M351T)): 106%; activity at 20 µM (PI3 Kinase (p110β/p85α)): 100%; activity at 20 µM (JAK2): 98%; activity at 20 µM (CDK1/cyclinB): 90%; activity at 20 µM (TAO1): 92%; activity at 20 µM (PDGFRβ): 99%; activity at 20 µM (EGFR(L861Q)): 49%; activity at 20 µM (PKG1β): 96%; activity at 20 µM (CK2): 106%; Dose Escalating Adverse Event Screen / Adverse Pharm Dose [2]: ≥ 200 mg/kg; Dose Escalating Adverse Event Screen / Adverse Pharm Dose ([2]; listed as MW01-11-108SRM): > 200 mg/kg; activity at 20 µM (Syk): 88%; activity at 20 µM (Lck activated): 70%
